In series [1] the test system is cerebral blood flow and peripheral blood flow. The experiment in a line: Separate pharmacological test: cerebral and peripheral blood flow, i.v. As to conditions: 1 to 10 μg/kg intravenously. The series is classed as in vivo.
A further series relates to Beagle dogs. Put plainly: Coronary effects on anesthetized beagle dogs (CF, FAF, BP, HR), i.v. The series is classed as in vivo, dog (beagle). As to conditions: for CF % increase: coronary blood flow; for CF % increase / FAF % increase / HR % increase: vs saline control; for FAF % increase: femoral artery blood flow; for HR % increase: heart rate; for BP % decrease: systemic blood pressure, vs control. On the procedure:
(c) Coronary effects on dogs
Beagle dogs (13 to 16 kg, .male.) were subjected to thoracotomy under anesthesia with sodium pentobarbital, and a probe was attached to the heart left coronary anterior descending artery of each animal, whereupon the coronary blood flow (CF) was measured by an electromagnetic flowmeter. On the other hand, a probe was attached to the exposed right femoral artery, and the femoral artery blood flow (FAF) was measured by an electromagnetic flowmeter. A canule was inserted to the left femoral artery, and the systemic blood pressure (BP) was bloody measured by a transducer.
The heart rate (HR) was measured by an electrocardiogram.
The sample solution was intravenously injected to the right femoral vein.
The coronary blood flow (CF), the femoral artery blood flow (FAF) and the heart rate (HR) were represented by a % increase upon the injection of each sample as compared with the respective control value upon the injection of a saline.
The systemic blood pressure (BP) was represented by a % decrease as compared with the control.

The nature of series [2]: Acute toxicity, i.v., DM strain male mice, up-and-down method. As to conditions: mouse, in vivo, iv.
For series [3], the system named is isolated hearts of rabbits (coronary vessels). Put plainly: Coronary vasodilation, Langendorff method, isolated hearts of rabbits. The note with it: Oryctolagus cuniculus, dosage of a sample required to increase the coronary outflow by 50%, isolated rabbit hearts, read-out: Coronary vasodilation ICD50. On the procedure:
(a) Coronary vasodilation
According to Langendorff method (O. Langendorff; Pflugers arch. ges. phisiol., 61, 291-332 (1895)), the coronary vasodilation effects were tested using isolated hearts of rabbits. The strength of coronary vasodilation was evaluated by ICD50 (g/ml) i.e. the dosage of a sample required to increase the coronary outflow by 50%.

One may read the LD50 as the dose expected to kill half of the subjects tested. A lower LD50 goes with greater toxicity.

Molecules are shown by their SMILES. Converted amounts (≈) assume the structure as drawn.

On to `CCCOCCOC(=O)C1=C(C)NC(COC(=O)NC)=C(C(=O)OCCOCCC)C1c1cccc([N+](=O)[O-])c1` (stereo not drawn) [(13), 2-N--Methylcarbamoyloxymethyl,-6-methyl-4-(m-nitrophenyl)-3,5-bis[(β-propoxyethoxy)carbonyl]-1,4-dihydropyridine], for which, in series [1], the “Increase of cerebral blood flow” value fell in the range of 40 to 50% and the “Increase of peripheral blood flow” value fell in the range of 40 to 50%.

On to `CCOC(=O)C1=C(C)NC(COC(N)=O)=C(C(=O)OCC)C1c1ccccc1[N+](=O)[O-]` (stereo not drawn) [(5), 2-Carbamoyloxymethyl-6-methyl-4-(o-nitrophenyl)-3,5-diethoxycarbonyl-1,4-dihydropyridine], for which, in the series with Beagle dogs (1 μg/kg i.v.), the CF % increase came to 13%, the FAF % increase is on record as 8%, the HR % increase was determined as 0% and the BP % decrease was 0%. In addition, in the series on Beagle dogs (3 μg/kg i.v.), the CF % increase is given as 38%, the FAF % increase was 35%, the HR % increase is recorded as 0% and the BP % decrease was 2%. In the series with Beagle dogs (10 μg/kg i.v.), the CF % increase was found to be 86%, the FAF % increase stood at 82%, the HR % increase is on record as -10% and the BP % decrease came to 22%.

The compound `COC(=O)C1=C(COC(N)=O)NC(C)=C(C(=O)OCCN(C)Cc2ccccc2)C1c1cccc([N+](=O)[O-])c1` (stereo not drawn) [(15), 2-Carbamoyloxymethyl-6-methyl-4-(m-nitrophenyl)-3-methoxycarbonyl-5-(β-N--methylbenzylaminoethoxy)carbonyl-1,4-dihydropyridine] yielded an LD50 in series [2] of 200 mg/kg.

The compound `COC(=O)C1=C(COC(N)=O)NC(C)=C(C(=O)OCCN2CCOCC2)C1c1cccc([N+](=O)[O-])c1` (stereo not drawn) [(18), 2-Carbamoyloxymethyl-6-methyl-4-(m-nitrophenyl)-3-methoxycarbonyl-5-(β-morpholinoethoxy)carbonyl-1,4-dihydropyridine] showed an LD50 in series [2] of 200 mg/kg.

Turning to `CCOC(=O)C1=C(C)NC(COC(N)=O)=C(C(=O)OCC)C1c1cccc([N+](=O)[O-])c1` (stereo not drawn) [(1), 2-Carbamoyloxymethyl-6-methyl-4-(m-nitrophenyl)-3,5-diethoxycarbonyl-1,4-dihydropyridine], in series [1], the “Increase of cerebral blood flow” value is listed as 40 to 50% and the “Increase of peripheral blood flow” value was in the range of 40 to 50%.

As to `CNC(=O)OCC1=C(C(=O)OC)C(c2cccc([N+](=O)[O-])c2)C(C(=O)OC)=C(C)N1` (stereo not drawn) [(4)], in series [2], the LD50 was found to be 84 mg/kg. Moreover, the EC50 in series [3] was found to be 0.36 µg/mL (≈ 0.858 µM).

Turning to `CCCOCCOC(=O)C1=C(C)NC(COC(N)=O)=C(C(=O)OCCOCCC)C1c1cccc([N+](=O)[O-])c1` (stereo not drawn) [(12), 2-Carbamoyloxymethyl-6-methyl-4-(m-nitrophenyl)-3,5-bis[(β-propoxyethoxy)carbonyl]-1,4-dihydropyridine], in series [1], the “Increase of cerebral blood flow” value lay within 40 to 50% and the “Increase of peripheral blood flow” value lay in the range of 40 to 50%.

With `CCOC(=O)C1=C(C)NC(COC(=O)NC)=C(C(=O)OCC)C1c1cccc([N+](=O)[O-])c1` (stereo not drawn) [(2)], the LD50 in series [2] turned out to be 71 mg/kg. Besides, the EC50 in series [3] turned out to be 0.32 µg/mL (≈ 0.715 µM).

Source of the values: patent publication US4739106A, “3-amino-3-carbamoyloxyalkylacrylic acid intermediates to dihydropyridines” (Banyu Pharmaceutical Co., Ltd., priority 1982, dated 1988).
